Experimental data taken from PubChem BioAssay (NCI).
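Assay format: 96-well plates, 48-hour exposure. GI50 marks 50% less growth. Definition used: TGI = concentration required for complete inhibition of growth.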

What was measured:
Assay in all cases: inhibition of tumour cell growth, NCI panel, 48 h
SNB-75 CNS = test system: SNB-75 CNS
HOP-62 NSCLC = test system: HOP-62 NSCLC
NCI/ADR-RES ovarian = test system: NCI/ADR-RES ovarian
SN12C renal = test system: SN12C renal
NCI-H23 lung = test system: NCI-H23 lung
ACHN renal = test system: ACHN renal
T-47D breast = test system: T-47D breast
DU-145 prostate = test system: DU-145 prostate
MDA-MB-435 = test system: MDA-MB-435
TK-10 renal = test system: TK-10 renal
UACC-62 melanoma = test system: UACC-62 melanoma
SK-MEL-28 melanoma = test system: SK-MEL-28 melanoma
SK-OV-3 ovarian = test system: SK-OV-3 ovarian
K-562 leukemia = test system: K-562 leukemia
OVCAR-5 ovarian = test system: OVCAR-5 ovarian
SF-539 CNS = test system: SF-539 CNS
NCI-H460 lung = test system: NCI-H460 lung
MOLT-4 leukemia = test system: MOLT-4 leukemia
CCRF-CEM leukemia = test system: CCRF-CEM leukemia
HCC-2998 colon = test system: HCC-2998 colon
CAKI-1 renal = test system: CAKI-1 renal
SF-295 CNS = test system: SF-295 CNS
MCF7 breast = test system: MCF7 breast
HOP-92 NSCLC = test system: HOP-92 NSCLC
HL-60(TB) leukemia = test system: HL-60(TB) leukemia
RXF 393 renal = test system: RXF 393 renal
A498 renal = test system: A498 renal
SF-268 CNS = test system: SF-268 CNS
786-0 renal = test system: 786-0 renal
UO-31 renal = test system: UO-31 renal
MALME-3M melanoma = test system: MALME-3M melanoma
HS 578T breast = test system: HS 578T breast
M14 melanoma = test system: M14 melanoma
PC-3 prostate = test system: PC-3 prostate
LOX IMVI melanoma = test system: LOX IMVI melanoma
IGROV1 ovarian = test system: IGROV1 ovarian
HCT-15 colon = test system: HCT-15 colon
HCT-116 colon = test system: HCT-116 colon

NC(N)=Nc1ccc(Oc2cccc(Nc3ccc(Cl)c(C(F)(F)F)c3)c2)cc1
GI50 (SNB-75 CNS): 1200 nM | TGI (SNB-75 CNS): 2500 nM | GI50 (HOP-62 NSCLC): 1600 nM | TGI (HOP-62 NSCLC): 3160 nM | GI50 (NCI/ADR-RES ovarian): 14800 nM | TGI (NCI/ADR-RES ovarian): 34300 nM | GI50 (SN12C renal): 1690 nM | TGI (SN12C renal): 3450 nM | GI50 (NCI-H23 lung): 1710 nM | TGI (NCI-H23 lung): 3210 nM | GI50 (ACHN renal): 2790 nM | TGI (ACHN renal): 8470 nM | GI50 (T-47D breast): 1750 nM | TGI (T-47D breast): 3950 nM | GI50 (DU-145 prostate): 1980 nM | TGI (DU-145 prostate): 3720 nM | GI50 (MDA-MB-435): 1670 nM | TGI (MDA-MB-435): 3080 nM | GI50 (TK-10 renal): 1940 nM | TGI (TK-10 renal): 4750 nM | GI50 (UACC-62 melanoma): 1750 nM | TGI (UACC-62 melanoma): 3230 nM | GI50 (SK-MEL-28 melanoma): 1740 nM | TGI (SK-MEL-28 melanoma): 3160 nM | GI50 (SK-OV-3 ovarian): 2690 nM | TGI (SK-OV-3 ovarian): 6670 nM | GI50 (K-562 leukemia): 2500 nM | TGI (K-562 leukemia): 6510 nM | GI50 (OVCAR-5 ovarian): 1560 nM | TGI (OVCAR-5 ovarian): 2940 nM | GI50 (SF-539 CNS): 1710 nM | TGI (SF-539 CNS): 3140 nM | GI50 (NCI-H460 lung): 1880 nM | TGI (NCI-H460 lung): 3560 nM | GI50 (MOLT-4 leukemia): 1950 nM | TGI (MOLT-4 leukemia): 4570 nM | GI50 (CCRF-CEM leukemia): 2680 nM | TGI (CCRF-CEM leukemia): 8960 nM | GI50 (HCC-2998 colon): 1750 nM | TGI (HCC-2998 colon): 3240 nM | GI50 (CAKI-1 renal): 1730 nM | TGI (CAKI-1 renal): 3570 nM | GI50 (SF-295 CNS): 1660 nM | TGI (SF-295 CNS): 3210 nM | GI50 (MCF7 breast): 1720 nM | TGI (MCF7 breast): 3480 nM | GI50 (HOP-92 NSCLC): 1290 nM | TGI (HOP-92 NSCLC): 2650 nM | GI50 (HL-60(TB) leukemia): 1990 nM | TGI (HL-60(TB) leukemia): 4290 nM | GI50 (RXF 393 renal): 1620 nM | TGI (RXF 393 renal): 3050 nM | GI50 (A498 renal): 1640 nM | TGI (A498 renal): 3200 nM | GI50 (SF-268 CNS): 1580 nM | TGI (SF-268 CNS): 3050 nM | GI50 (786-0 renal): 1620 nM | TGI (786-0 renal): 3190 nM | GI50 (UO-31 renal): 2950 nM | TGI (UO-31 renal): 11700 nM | GI50 (MALME-3M melanoma): 1720 nM | TGI (MALME-3M melanoma): 3680 nM | GI50 (HS 578T breast): 1930 nM | TGI (HS 578T breast): 4620 nM | GI50 (M14 melanoma): 1820 nM | TGI (M14 melanoma): 3450 nM | GI50 (PC-3 prostate): 1540 nM | TGI (PC-3 prostate): 3000 nM | GI50 (LOX IMVI melanoma): 1690 nM | TGI (LOX IMVI melanoma): 3150 nM | GI50 (IGROV1 ovarian): 1270 nM | TGI (IGROV1 ovarian): 2740 nM | GI50 (HCT-15 colon): 1920 nM | TGI (HCT-15 colon): 4360 nM | GI50 (HCT-116 colon): 1620 nM | TGI (HCT-116 colon): 3130 nM
